Literature values in patent publication US9781921B2, “Emulsifiable concentrate formulation” (Huntsman Corporation Australia Pty Limited, priority 2012, dated 2017).

Test system: mouse
Details: summary of Table 2

CC(=O)OCc1ccccc1 [Benzyl Acetate, benzyl acetate]
Toxicity: relatively low toxicity
